One experiment deals with T1, human V1a receptor (Homo sapiens, UniProt P37288).
T1 construct: expressed in transfected cells; host or cells: 293FT cells
The experiment can be described thus: V1a receptor binding assay ([3H](Arg8)-vasopressin, crude membranes of 293FT cells). The following applies: receptor binding test, 293FT cell membranes. On the procedure:
(§1) A summary of the methods is given below.
(§2) Each obtained homogenate was centrifuged for 20 minutes at 50,000×g and 4° C., the sediment was resuspended in a 50 mmol/L Tris hydrochloric acid buffer solution (pH7.4, containing 10 mmol/L magnesium chloride and 0.1% bovine serum albumin), which served as a crude membrane preparation. This crude membrane preparation was added with [^3H] (Arg^8) vasopressin (final concentration: 0.1 nmol/L to 0.4 nmol/L), and each test drug (final concentration: 0.1 nmol/L to lμmol/L or 0.01 nmol/L to 0.1 μmol/L) to 22° C. for 90 minutes. After the end of the reaction, the reaction solution was filtrated using a GF/C glass fiber filter, which had been presoaked in 0.3% polyethyleneimine for two hours. After the GF/C glass fiber filter was dried sufficiently, scintillator was added, and the radioactivity on the filter was measured using a liquid scintillation counter. Binding of [^3H] (Arg^8)-vasopressin in the presence of (Arg^8)-vasopressin, in the amounts of 0.1 μmol/L in the V1b receptor binding assay and 5 μmol/L in the V1a and V2 receptor binding assay, were taken as non-specific binding, and the value obtained by subtracting non-specific binding from the total binding in the absence (Arg^8)-vasopressin served as specific binding.

The target in another experiment is T2, human V2 receptor (Homo sapiens, UniProt P30518).
T2 construct: expressed in transfected cells; host or cells: 293FT cells
T2 sequence (P30518 whole entry): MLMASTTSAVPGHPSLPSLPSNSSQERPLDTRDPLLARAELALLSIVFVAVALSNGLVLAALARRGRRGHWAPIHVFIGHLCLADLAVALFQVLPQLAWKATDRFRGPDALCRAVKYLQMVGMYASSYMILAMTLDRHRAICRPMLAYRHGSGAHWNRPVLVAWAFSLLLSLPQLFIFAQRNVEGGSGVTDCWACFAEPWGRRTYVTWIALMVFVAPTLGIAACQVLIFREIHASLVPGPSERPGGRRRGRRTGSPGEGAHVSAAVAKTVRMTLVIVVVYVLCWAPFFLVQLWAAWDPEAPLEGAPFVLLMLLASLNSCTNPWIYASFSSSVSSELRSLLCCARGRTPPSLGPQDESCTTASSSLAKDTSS
As to the kind of experiment: V2 receptor binding assay ([3H](Arg8)-vasopressin, crude membranes of 293FT cells). Conditions: receptor binding test, human V2, 293FT cell membranes. On the procedure: as §1, §2

For the next experiment, the target named is T3, human V1b receptor (Homo sapiens, UniProt P47901).
T3 construct: expressed in transfected cells; host or cells: CHO cells
T3 sequence (P47901 1-424): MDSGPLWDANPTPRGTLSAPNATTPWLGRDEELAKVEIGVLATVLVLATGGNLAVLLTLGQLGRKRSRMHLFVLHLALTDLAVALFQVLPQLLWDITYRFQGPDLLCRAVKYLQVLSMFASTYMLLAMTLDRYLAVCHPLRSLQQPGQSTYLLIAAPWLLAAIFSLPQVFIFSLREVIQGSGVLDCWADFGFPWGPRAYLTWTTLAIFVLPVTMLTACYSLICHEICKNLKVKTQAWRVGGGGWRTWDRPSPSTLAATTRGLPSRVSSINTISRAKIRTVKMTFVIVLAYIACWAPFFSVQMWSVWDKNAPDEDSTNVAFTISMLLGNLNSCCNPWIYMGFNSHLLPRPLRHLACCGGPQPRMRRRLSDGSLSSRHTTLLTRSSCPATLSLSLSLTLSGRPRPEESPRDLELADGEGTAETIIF
The experiment can be described thus: V1b receptor binding assay ([3H](Arg8)-vasopressin, crude membranes of CHO cells). Conditions: for IC50: receptor binding test, human V1b, CHO cell membranes; for inhibition at 0.1 µM: 0.1 μmol/L test drug, V1b receptor binding assay, read-out: Rate of inhibition (V1b: % of inhibition). Here is the method:
as §1, §2
In addition, regarding the V1b receptor binding assay, the value obtained by, subtracting the amount of binding in the presence of 0.1 μmol/L test drug from the total amount of binding, divided by the amount of specific binding, served as the rate of inhibition (% of inhibition) of the test drug at the concentration tested.

The structures appear in SMILES notation. Counter-ions that a name gives are not always drawn. A value given as a limit tells only on which side of the number the result lay.

T1 sequence (P37288 whole entry): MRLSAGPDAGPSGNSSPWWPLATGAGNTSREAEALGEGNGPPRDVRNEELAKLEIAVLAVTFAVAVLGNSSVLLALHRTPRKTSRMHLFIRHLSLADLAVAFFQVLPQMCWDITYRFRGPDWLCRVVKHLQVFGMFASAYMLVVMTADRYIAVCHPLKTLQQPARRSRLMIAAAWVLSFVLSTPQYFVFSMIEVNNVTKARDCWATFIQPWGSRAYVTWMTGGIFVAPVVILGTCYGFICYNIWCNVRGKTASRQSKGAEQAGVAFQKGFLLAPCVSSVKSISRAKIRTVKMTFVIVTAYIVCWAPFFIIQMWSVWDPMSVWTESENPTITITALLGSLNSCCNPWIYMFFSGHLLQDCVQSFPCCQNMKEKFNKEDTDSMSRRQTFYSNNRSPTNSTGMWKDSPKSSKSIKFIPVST

`COc1ccc(S(=O)(=O)N2C(=O)C(c3cccnc3OC)(N3C[C@H](O)C[C@H]3C(=O)N(C)C)c3cc(Cl)ccc32)c(OC(F)F)c1` (single isomer, unassigned) [Example 170]: the results for the IC50 on human V1a receptor, on human V2 receptor and on human V1b receptor were 65.1 nM, 4050 nM and 0.56 nM, respectively.

Regarding `COc1ccc(S(=O)(=O)N2C(=O)C(c3cc(CN(C)C)ccc3OC)(N3C[C@H](O)C[C@H]3C(=O)N(C)C)c3cc(Cl)ccc32)c(OC(F)(F)F)c1` (single isomer, unassigned) [Example 195 A], the IC50 at human V1a receptor is 573 nM; at human V2 receptor, above 10000 nM; at human V1b receptor, 0.56 nM.

In the case of `COc1ccc(S(=O)(=O)N2C(=O)C(c3cc(C)ccc3OC)(N3C[C@H](O)C[C@H]3C(=O)N(C)C)c3cc(C#N)ccc32)c(OC(F)(F)F)c1` (single isomer, unassigned) [Example 126], the concentration for half-maximal inhibition (IC50) on human V1a receptor is 8240 nM; on human V2 receptor, above 10000 nM; on human V1b receptor, 15 nM.

For the compound `COc1ccc(S(=O)(=O)N2C(=O)C(c3ccccc3OC)(N3CCC[C@H]3C(=O)N(C)C)c3cc(Cl)ccc32)c(OC(F)(F)F)c1` (single isomer, unassigned) [Example 5, 1-(5-chloro-3-(2-methoxyphenyl)-1-{[4-methoxy-2-(trifluoromethoxy)phenyl]sulfonyl}-2-oxo-2,3-dihydro-1H-indol-3-yl)-N,N-dimethyl-L-prolinamide], the IC50 was 2180 nM at human V1a receptor, above 10000 nM on human V2 receptor and 16 nM on human V1b receptor.

Regarding `COc1ccc(S(=O)(=O)N2C(=O)C(c3ccccc3OC)(N3CCCC[C@H]3C(=O)N(C)C)c3cc(Cl)ccc32)c(OC(F)(F)F)c1` (single isomer, unassigned) [Example 31], the half-inhibitory concentration (IC50) at human V1a receptor is 953 nM; on human V2 receptor, above 10000 nM; on human V1b receptor it was 5.2 nM.

For the compound `COc1ccc(S(=O)(=O)N2C(=O)C(c3cc(C)cnc3OC)(N3C[C@H](O)C[C@H]3C(=O)N(C)C)c3cc(Cl)ccc32)c(OCC(F)(F)F)c1` (single isomer, unassigned) [Example 169], the inhibition at 0.1 µM on human V1b receptor came out at 93%.

Take `COc1ccc(S(=O)(=O)N2C(=O)C(c3cc(C)ccc3OC)(N3C[C@H](OCC(=O)O)C[C@H]3C(=O)N(C)C)c3cc(Cl)ccc32)c(OC(F)(F)F)c1` (stereo partly drawn) [Example 148, ({(3R,5S)-1-(5-chloro-3-(2-methoxy-5-methylphenyl)-1-{[4-methoxy-2-(trifluoromethoxy)phenyl]sulfonyl}-2-oxo-2,3-dihydro-1H-indol-3-yl)-5-[(dimethylamino)carbonyl]pyrrolidin-3-yl}oxy)acetic acid]: the inhibition at 0.1 µM at human V1b receptor was determined as 85%.

Consider `COc1ccc(S(=O)(=O)N2C(=O)C(c3cccc4c3OCC4)(N3C[C@H](O)C[C@H]3C(=O)N(C)C)c3cc(Cl)ccc32)c(OC(F)(F)F)c1` (single isomer, unassigned) [Example 89], for which, at human V1b receptor, the inhibition at 0.1 µM was found to be 104%.

With `COc1ccc(S(=O)(=O)N2C(=O)C(c3cc(C)ccc3OC)(N3C[C@H](OCCCN4CCN(C)CC4)C[C@H]3C(=O)N(C)C)c3cc(Cl)ccc32)c(OC(F)(F)F)c1` (stereo partly drawn) [Example 154, (4R)-1-(5-chloro-3-(2-methoxy-5-methylphenyl)-1-{[4-methoxy-2-(trifluoromethoxy)phenyl]sulfonyl}-2-oxo-2,3-dihydro-1H-indol-3-yl)-N,N-dimethyl-4-[3-(4-methylpiperazin-1-yl)propoxy]-L-prolinamide], on human V1b receptor, the inhibition at 0.1 µM was determined as 100%.

In the case of `COc1ccc(S(=O)(=O)N2C(=O)C(N[C@@H](Cc3ccncc3)C(=O)N(C)C)(c3ccccc3OC)c3cc(Cl)ccc32)c(OC(F)(F)F)c1` (single isomer, unassigned) [Example 83], the inhibition at 0.1 µM at human V1b receptor was 72%.

As for `COc1ccc(S(=O)(=O)N2C(=O)C(c3cccc(OC)c3OC)(N3C[C@H](O)C[C@H]3C(=O)N(C)C)c3cc(Cl)ccc32)c(OC(F)(F)F)c1` (single isomer, unassigned) [Example 240], the inhibition at 0.1 µM on human V1b receptor was found to be 85%.

Take `COc1ccc(S(=O)(=O)N2C(=O)C(c3cc(OC)ccc3OC)(N3C[C@H](O)C[C@H]3C(=O)N(C)C)c3cc(Cl)ccc32)c(OC(F)(F)F)c1` (single isomer, unassigned) [Example 102]: the inhibition at 0.1 µM on human V1b receptor came to 102%.

As to `COc1ccc(S(=O)(=O)N2C(=O)C(N[C@@H](Cc3ccc(O)cc3)C(=O)N(C)C)(c3ccccc3OC)c3cc(Cl)ccc32)c(OC(F)(F)F)c1` (single isomer, unassigned) [Example 86], the inhibition at 0.1 µM on human V1b receptor was determined as 86%.

On to `COc1ccc(S(=O)(=O)N2C(=O)C(c3cc(C)ccc3OC)(N3CCN(c4ccncc4)CC3C(=O)N(C)C)c3cc(Cl)ccc32)c(OC(F)(F)F)c1` (centres unmarked) [Example 112, 1-(5-chloro-3-(2-methoxy-5-methylphenyl)-1-{[4-methoxy-2-(trifluoromethoxy)phenyl]sulfonyl}-2-oxo-2,3-dihydro-1H-indol-3-yl)-N,N-dimethyl-4-pyridin-4-yl piperazine-2-carboxamide], for which the inhibition at 0.1 µM at human V1b receptor stood at 55%.

Turning to `COc1ccc(S(=O)(=O)N2C(=O)C(c3cc(OC)ccc3OC)(N3CCCC[C@H]3C(=O)N(C)C)c3cc(Cl)ccc32)c(OC(F)(F)F)c1` (single isomer, unassigned) [Example 117], the inhibition at 0.1 µM on human V1b receptor turned out to be 95%.

On to `COc1ccc(C)cc1C1(N2C[C@H](O)C[C@H]2C(=O)N(C)C)C(=O)N(S(=O)(=O)c2ccc(OC)c(OC)c2OC)c2ccc(Cl)cc21` (single isomer, unassigned) [Example 176], for which the inhibition at 0.1 µM at human V1b receptor turned out to be 97%.

As for `COC(=O)[C@H](C)OC1(c2ccccc2OC)C(=O)N(S(=O)(=O)c2ccc(OC)cc2OC(F)(F)F)c2ccc(Cl)cc21` (stereo partly drawn) [Example 80, Methyl (2S)-2-[(5-chloro-3-(2-methoxyphenyl)-1-{[4-methoxy-2-(trifluoromethoxy)phenyl]sulfonyl}-2-oxo-2,3-dihydro-1H-indol-3-yl)oxy]propanoate], the inhibition at 0.1 µM on human V1b receptor was determined as 69%.

In the case of `COc1ccc(S(=O)(=O)N2C(=O)C(CC(=O)N3CCN(c4ccncc4)CC3)(c3ccccc3OC)c3cc(Cl)ccc32)c(OC(F)(F)F)c1` (centres unmarked) [Example 43, 5-chloro-3-(2-methoxyphenyl)-1-{[4-methoxy-2-(trifluoromethoxy)phenyl]sulfonyl}-3-[2-oxo-2-(4-pyridin-4-ylpiperazin-1-yl)ethyl]-1,3-dihydro-2H-indol-2-one hydrochloride 1.5 hydrate], the inhibition at 0.1 µM on human V1b receptor was 92%.

In the case of `COC(=O)[C@@H]1C[C@@H](O)CN1C1(c2cc(C)ccc2OC)C(=O)N(S(=O)(=O)c2ccc(OC)cc2OC(F)(F)F)c2ccc(Cl)cc21` (single isomer, unassigned) [Example 135], on human V1b receptor, the inhibition at 0.1 µM was found to be 92%.

For the compound `COc1ccc(S(=O)(=O)N2C(=O)C(c3cccc4c3OCC4)(N3CCCC[C@H]3C(=O)N(C)C)c3cc(Cl)ccc32)c(OC(F)(F)F)c1` (stereo partly drawn) [Example 90, (2S)-1-(5-chloro-3-(2,3-dihydro-1-benzofuran-7-yl)-1-{[4-methoxy-2-(trifluoromethoxy)phenyl]sulfonyl}-2-oxo-2,3-dihydro-1H-indol-3-yl)-N,N-dimethylpiperidine-2-carboxamide], the inhibition at 0.1 µM at human V1b receptor turned out to be 97%.

Turning to `COc1ccc(S(=O)(=O)N2C(=O)C(c3cccc4c3OCO4)(N3C[C@H](O)C[C@H]3C(=O)N(C)C)c3cc(C)ccc32)c(OC(F)(F)F)c1` (single isomer, unassigned) [Example 107], on human V1b receptor, the inhibition at 0.1 µM turned out to be 102%.

For `COc1ccc(S(=O)(=O)N2C(=O)C(c3ccccc3C)(N3C[C@H](O)C[C@H]3C(=O)N(C)C)c3cc(Br)ccc32)c(OC(F)(F)F)c1` (single isomer, unassigned) [Example 105], at human V1b receptor, the inhibition at 0.1 µM came to 95%.

In the case of `COc1ccc(S(=O)(=O)N2C(=O)C(c3cc(C#N)ccc3OC)(N3C[C@H](O)C[C@H]3C(=O)N(C)C)c3cc(Cl)ccc32)c(OC(F)(F)F)c1` (single isomer, unassigned) [Example 238], the inhibition at 0.1 µM on human V1b receptor is 89%.

On to `COc1ccc(S(=O)(=O)N2C(=O)C(c3cc(N(C)C)ccc3OC)(N3C[C@H](O)C[C@H]3C(=O)N(C)C)c3cc(Cl)ccc32)c(OC(F)(F)F)c1` (single isomer, unassigned) [Example 190], for which, at human V1b receptor, the inhibition at 0.1 µM was 93%.

Regarding `COc1ccc(S(=O)(=O)N2C(=O)C(c3cc(C(C)C)ccc3OC)(N3C[C@H](O)C[C@H]3C(=O)N(C)C)c3cc(Cl)ccc32)c(OC(F)(F)F)c1` (single isomer, unassigned) [Example 230], the inhibition at 0.1 µM on human V1b receptor turned out to be 101%.

The term IC50 denotes the point on the concentration scale where inhibition reaches its midpoint. A low value points to inhibition by little substance. Broadly, the inhibition is the relative decrease from the control value, in per cent.
